The source of these data is ChEMBL document CHEMBL3886740, “Heterocyclic compounds and uses thereof in the treatment of sexual disorders” (2016).

The structures appear in SMILES notation.

The assay concerns the target T1, D(4) dopamine receptor (Homo sapiens, UniProt P21917).
T1 sequence (P21917 whole entry): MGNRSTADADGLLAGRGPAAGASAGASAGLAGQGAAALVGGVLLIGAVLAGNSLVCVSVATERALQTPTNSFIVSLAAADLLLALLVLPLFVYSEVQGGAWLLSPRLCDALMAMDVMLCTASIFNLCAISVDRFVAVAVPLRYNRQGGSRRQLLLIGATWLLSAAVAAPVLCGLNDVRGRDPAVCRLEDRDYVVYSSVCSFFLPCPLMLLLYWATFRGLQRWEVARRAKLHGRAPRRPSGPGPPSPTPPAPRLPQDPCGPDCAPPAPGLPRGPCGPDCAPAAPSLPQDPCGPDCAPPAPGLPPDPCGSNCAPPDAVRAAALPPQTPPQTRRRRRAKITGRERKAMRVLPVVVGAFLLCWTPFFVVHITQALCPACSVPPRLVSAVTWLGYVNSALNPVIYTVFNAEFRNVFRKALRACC
The experiment in a line: Receptor Binding Assay: Determination of binding to D4.4 receptor was performed using [3H]-YM-09151-2 (70-87 Ci/mmol, 0.3 nM), as a radioligand, in the presence of various concentrations of the tested compound. Reactions were carried out in 50 mM TRIS-HCl (pH 7.4) containing 5 mM MgCl2, 5 mM EDTA, 5 mM KCl and 1.5 mM CaCl2, for 60 minutes at 22° C. The reaction was terminated by rapid vacuum filtration onto glass fiber filters.

For `O=c1[nH]c(CN2CCN(c3ccccc3O)CC2)nc2ccccc12`, the IC50 (usually the concentration needed to halve the response being measured) was determined as 10 µM.
